Experimental data published in patent publication US8841633B2, “Method and apparatus for detecting pharmaceuticals in a sample” (priority 2009, dated 2014).
Where two headings read alike, the source gives them in different places.

Tests used:
coagulation of the blood = assay: International Normalized Ratio (INR) of patients treated with warfarin; assay type: in vivo, human
Protocol: (§1) In connection with the retrieval of the blood sample, the patients respective International Normalized Ratio (INR) were measured, which is a well known type of measure indicative of the coagulation of the blood.

[1] = time-resolved fluorescence of isolated warfarin in PBS; assay type: physicochemical; details: excitation 334 nm
[2] = mean of three ± SEM
Protocol: The values are given as mean values of three measurements±standard error of the mean.
as §1

[3] = blood sample of patient no. 1 treated with warfarin
[4] = blood sample of patient no. 2 treated with warfarin

CC(=O)CC(c1ccccc1)c1c(O)c2ccccc2oc1=O (stereo not shown) [Warfarin, warfarin]
INR value (coagulation of the blood; patient no. 1 treated with warfarin): 3.0
INR value (coagulation of the blood; patient no. 2 treated with warfarin): 1.9
excited state lifetime τ1 (unresolved) [1]: ≤ 100 ps
Amplitude A1 [2, 3]: 69.4 ± 0.2%
Amplitude A2 [2, 3]: 21.0 ± 0.2%
Amplitude A3 [2, 3]: 9.6 ± 0.1%
Fluorescence lifetime τ1 [2, 3]: 0.10 ± 0.00 ns
Fluorescence lifetime τ2 [2, 3]: 1.50 ± 0.04 ns
Fluorescence lifetime τ3 [2, 3]: 4.05 ± 0.01 ns
Amplitude A1 [2, 4]: 96.0 ± 0.3%
Amplitude A3 [2, 4]: 4.0 ± 0.3%
Fluorescence lifetime τ1 [2, 4]: 0.06 ± 0.00 ns
Fluorescence lifetime τ3 [2, 4]: 2.77 ± 0.02 ns
